Positions of bridges follow the written chain, without caps; N, C: chain ends. Non-standard residues stand in square brackets, D forms with d. Residues, ends and D or L forms follow the SMILES beside them. Cit = NC(=O)NCCC[C@H](N)C(=O)O

The target in one test is hNav1.7 (Homo sapiens, UniProt Q15858). In words: cell-based. The following applies: Nav1.7 Use IC50.
Another test deals with hNav1.5 (Homo sapiens, UniProt Q14524). As to the kind of experiment: cell-based.
Chain of hNav1.5 (Q14524 whole entry, looked up): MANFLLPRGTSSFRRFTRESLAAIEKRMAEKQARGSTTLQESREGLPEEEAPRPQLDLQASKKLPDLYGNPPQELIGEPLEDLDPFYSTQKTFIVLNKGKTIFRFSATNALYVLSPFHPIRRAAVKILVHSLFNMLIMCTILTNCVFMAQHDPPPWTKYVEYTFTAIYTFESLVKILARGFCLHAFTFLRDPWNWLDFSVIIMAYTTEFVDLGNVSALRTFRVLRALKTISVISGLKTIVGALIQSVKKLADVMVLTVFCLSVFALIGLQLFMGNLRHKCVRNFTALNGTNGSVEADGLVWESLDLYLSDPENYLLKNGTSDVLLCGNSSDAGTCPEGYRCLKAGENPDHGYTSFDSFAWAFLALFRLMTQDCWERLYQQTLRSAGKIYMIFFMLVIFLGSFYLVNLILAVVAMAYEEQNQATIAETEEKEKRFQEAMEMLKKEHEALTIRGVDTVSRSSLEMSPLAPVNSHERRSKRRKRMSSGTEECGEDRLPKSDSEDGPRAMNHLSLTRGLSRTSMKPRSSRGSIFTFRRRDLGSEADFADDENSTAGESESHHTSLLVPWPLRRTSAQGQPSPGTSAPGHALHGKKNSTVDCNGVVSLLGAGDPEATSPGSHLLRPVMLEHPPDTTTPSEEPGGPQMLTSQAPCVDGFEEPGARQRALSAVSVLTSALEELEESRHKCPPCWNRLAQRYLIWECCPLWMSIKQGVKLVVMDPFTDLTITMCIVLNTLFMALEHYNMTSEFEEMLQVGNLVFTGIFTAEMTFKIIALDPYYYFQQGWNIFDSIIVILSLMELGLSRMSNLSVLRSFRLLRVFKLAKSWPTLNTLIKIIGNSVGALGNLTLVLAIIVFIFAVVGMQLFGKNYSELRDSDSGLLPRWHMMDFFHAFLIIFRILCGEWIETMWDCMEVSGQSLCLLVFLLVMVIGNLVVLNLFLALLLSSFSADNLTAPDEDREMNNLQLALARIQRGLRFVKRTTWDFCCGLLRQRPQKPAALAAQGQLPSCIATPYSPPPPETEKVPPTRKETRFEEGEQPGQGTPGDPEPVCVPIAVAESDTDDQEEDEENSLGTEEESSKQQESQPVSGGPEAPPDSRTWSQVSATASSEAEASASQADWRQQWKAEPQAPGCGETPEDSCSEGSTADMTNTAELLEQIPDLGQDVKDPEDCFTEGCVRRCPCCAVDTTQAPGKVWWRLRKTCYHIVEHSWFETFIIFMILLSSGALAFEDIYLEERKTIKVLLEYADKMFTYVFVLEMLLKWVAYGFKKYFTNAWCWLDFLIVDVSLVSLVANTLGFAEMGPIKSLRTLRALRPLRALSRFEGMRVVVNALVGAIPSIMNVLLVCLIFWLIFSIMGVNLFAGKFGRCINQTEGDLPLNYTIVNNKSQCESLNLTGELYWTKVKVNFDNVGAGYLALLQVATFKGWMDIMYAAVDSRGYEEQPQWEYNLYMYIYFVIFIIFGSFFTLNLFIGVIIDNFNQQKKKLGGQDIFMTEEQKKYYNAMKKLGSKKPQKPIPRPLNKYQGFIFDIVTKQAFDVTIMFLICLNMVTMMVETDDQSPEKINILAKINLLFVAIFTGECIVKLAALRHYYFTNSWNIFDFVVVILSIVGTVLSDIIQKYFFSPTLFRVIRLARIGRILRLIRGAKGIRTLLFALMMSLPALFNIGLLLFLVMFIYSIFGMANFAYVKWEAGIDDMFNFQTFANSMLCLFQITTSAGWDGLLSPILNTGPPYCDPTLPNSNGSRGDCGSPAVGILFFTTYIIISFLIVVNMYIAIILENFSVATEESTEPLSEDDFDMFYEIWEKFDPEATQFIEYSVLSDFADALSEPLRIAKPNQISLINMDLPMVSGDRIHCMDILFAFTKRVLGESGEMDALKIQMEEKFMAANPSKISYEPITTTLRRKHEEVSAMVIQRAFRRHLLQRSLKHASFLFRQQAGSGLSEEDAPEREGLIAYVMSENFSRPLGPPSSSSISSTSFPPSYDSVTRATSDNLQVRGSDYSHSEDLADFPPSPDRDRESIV

Chain of hNav1.7 (Q15858 whole entry, looked up): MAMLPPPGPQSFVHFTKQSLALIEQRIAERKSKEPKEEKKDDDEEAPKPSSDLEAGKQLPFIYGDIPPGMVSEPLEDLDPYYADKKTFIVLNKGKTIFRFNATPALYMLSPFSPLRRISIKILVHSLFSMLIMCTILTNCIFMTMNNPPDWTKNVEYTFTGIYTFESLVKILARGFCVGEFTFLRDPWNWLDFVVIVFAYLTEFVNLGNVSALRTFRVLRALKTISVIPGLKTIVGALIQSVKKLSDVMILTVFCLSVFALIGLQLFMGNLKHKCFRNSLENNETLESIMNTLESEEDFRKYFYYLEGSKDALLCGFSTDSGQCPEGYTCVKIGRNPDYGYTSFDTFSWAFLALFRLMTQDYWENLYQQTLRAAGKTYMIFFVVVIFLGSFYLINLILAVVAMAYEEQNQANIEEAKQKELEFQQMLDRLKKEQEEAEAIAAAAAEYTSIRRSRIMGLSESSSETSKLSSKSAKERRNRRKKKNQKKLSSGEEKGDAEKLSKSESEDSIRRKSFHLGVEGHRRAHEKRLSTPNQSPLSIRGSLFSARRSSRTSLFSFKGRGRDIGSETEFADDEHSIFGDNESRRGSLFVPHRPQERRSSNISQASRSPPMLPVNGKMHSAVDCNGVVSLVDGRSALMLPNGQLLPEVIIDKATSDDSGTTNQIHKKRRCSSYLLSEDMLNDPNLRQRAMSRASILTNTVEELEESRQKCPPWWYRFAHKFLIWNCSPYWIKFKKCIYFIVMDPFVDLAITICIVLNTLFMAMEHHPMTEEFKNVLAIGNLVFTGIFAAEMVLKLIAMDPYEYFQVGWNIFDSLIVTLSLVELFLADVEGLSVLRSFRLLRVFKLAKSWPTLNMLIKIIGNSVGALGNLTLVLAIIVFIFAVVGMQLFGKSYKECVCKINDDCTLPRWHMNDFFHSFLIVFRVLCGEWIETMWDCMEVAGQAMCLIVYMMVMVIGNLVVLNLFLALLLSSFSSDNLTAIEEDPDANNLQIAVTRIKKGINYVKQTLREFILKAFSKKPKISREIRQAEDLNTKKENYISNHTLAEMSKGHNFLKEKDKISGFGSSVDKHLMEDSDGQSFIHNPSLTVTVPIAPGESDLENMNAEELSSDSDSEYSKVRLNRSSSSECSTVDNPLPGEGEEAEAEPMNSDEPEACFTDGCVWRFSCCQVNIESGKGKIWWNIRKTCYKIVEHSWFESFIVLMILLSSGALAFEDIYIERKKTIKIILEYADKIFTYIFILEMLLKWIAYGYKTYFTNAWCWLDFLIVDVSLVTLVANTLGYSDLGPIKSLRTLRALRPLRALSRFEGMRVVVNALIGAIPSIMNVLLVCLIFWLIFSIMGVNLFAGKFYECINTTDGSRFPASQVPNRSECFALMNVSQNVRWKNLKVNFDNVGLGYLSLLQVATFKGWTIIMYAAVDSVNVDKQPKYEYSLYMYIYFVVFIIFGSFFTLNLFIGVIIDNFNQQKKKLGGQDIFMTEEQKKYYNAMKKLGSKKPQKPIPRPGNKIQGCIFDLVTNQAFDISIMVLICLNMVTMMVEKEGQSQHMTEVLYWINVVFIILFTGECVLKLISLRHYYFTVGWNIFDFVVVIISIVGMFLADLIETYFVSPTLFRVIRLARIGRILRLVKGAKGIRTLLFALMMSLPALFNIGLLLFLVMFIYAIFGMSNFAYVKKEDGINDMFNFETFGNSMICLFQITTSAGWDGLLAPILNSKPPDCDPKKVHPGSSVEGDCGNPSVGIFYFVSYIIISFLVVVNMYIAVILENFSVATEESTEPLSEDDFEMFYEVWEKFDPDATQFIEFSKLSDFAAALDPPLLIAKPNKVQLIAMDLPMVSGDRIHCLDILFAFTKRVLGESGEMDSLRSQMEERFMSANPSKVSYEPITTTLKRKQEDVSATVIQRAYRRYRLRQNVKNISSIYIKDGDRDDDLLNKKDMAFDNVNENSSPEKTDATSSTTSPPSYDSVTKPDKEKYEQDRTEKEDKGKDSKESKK

On to `CC[C@H](C)[C@@H]1NC(=O)[C@@H]2CSSC[C@@H]3NC(=O)[C@H](Cc4c[nH]c5ccccc45)NC(=O)[C@H](CC(C)C)NC(=O)[C@H](CC(N)=O)NC(=O)[C@@H]4CCCN4C(=O)[C@H](CCCNC(=N)N)NC(=O)[C@H](CSSC[C@H](NC(=O)[C@@H](N)CC(=O)O)C(=O)N[C@@H](CC(C)C)C(=O)NCC(=O)N[C@@H](Cc4ccccc4)C(=O)N[C@@H](CCSC)C(=O)N[C@@H](CCCNC(=N)N)C(=O)N[C@@H](CCCCN)C(=O)N2)NC(=O)[C@H](CSSC[C@@H](C(=O)N[C@@H](CCCCN)C(=O)N[C@@H](Cc2ccc(O)cc2)C(=O)N[C@H](C(=O)N[C@@H](Cc2ccccc2)C(N)=O)C(C)C)NC(=O)[C@H](Cc2c[nH]c4ccccc24)NC(=O)[C@H](CCCCN)NC(=O)[C@H](Cc2cnc[nH]2)NC(=O)[C@H]([C@@H](C)O)NC(=O)[C@H](CCCNC(=N)N)NC(=O)[C@H](CO)NC3=O)NC(=O)[C@H](CCCCN)NC(=O)[C@H](CC(=O)O)NC(=O)[C@H](CC(N)=O)NC(=O)[C@H](CC(=O)O)NC(=O)[C@@H]2CCCN2C1=O` [[Trp22]GpTx-1(1-34)] (H-DCLGFMRKCIPDNDKCCRPNLWCSRTHKWCKYVF-NH2; disulfide 2-17, 9-23, 16-30), for which the IC50 was found to be 39 nM at hNav1.7 and 4780 nM at hNav1.5.
The corresponding values for `CC[C@H](C)[C@@H]1NC(=O)[C@@H]2CSSC[C@@H]3NC(=O)[C@H](C(C)C)NC(=O)[C@H](CC(C)C)NC(=O)[C@H](CC(N)=O)NC(=O)[C@@H]4CCCN4C(=O)[C@H](CCCNC(=N)N)NC(=O)[C@H](CSSC[C@H](NC(=O)[C@@H](N)CC(=O)O)C(=O)N[C@@H](CC(C)C)C(=O)NCC(=O)N[C@@H](Cc4ccccc4)C(=O)N[C@@H](CCSC)C(=O)N[C@@H](CCCNC(=N)N)C(=O)N[C@@H](CCCCN)C(=O)N2)NC(=O)[C@H](CSSC[C@@H](C(=O)N[C@@H](CCCCN)C(=O)N[C@@H](Cc2ccc(O)cc2)C(=O)N[C@@H](Cc2c[nH]c4ccccc24)C(=O)N[C@@H](Cc2ccccc2)C(N)=O)NC(=O)[C@H](Cc2c[nH]c4ccccc24)NC(=O)[C@H](CCCCN)NC(=O)[C@H](Cc2c[nH]cn2)NC(=O)[C@H]([C@@H](C)O)NC(=O)[C@H](CCCNC(=N)N)NC(=O)[C@H](CO)NC3=O)NC(=O)[C@H](CCCCN)NC(=O)[C@H](CC(=O)O)NC(=O)[C@H](CC(N)=O)NC(=O)[C@H](CC(=O)O)NC(=O)[C@@H]2CCCN2C1=O` [[Trp33]GpTx-1(1-34)] (H-DCLGFMRKCIPDNDKCCRPNLVCSRTHKWCKYWF-NH2; disulfide 2-17, 9-23, 16-30) are 18 nM and 2350 nM.
In the same order, the values of `CC[C@H](C)[C@@H]1NC(=O)[C@@H]2CSSC[C@@H]3NC(=O)[C@H](Cc4ccc(O)cc4)NC(=O)[C@H](CC(C)C)NC(=O)[C@H](CC(N)=O)NC(=O)[C@@H]4CCCN4C(=O)[C@H](CCCNC(=N)N)NC(=O)[C@H](CSSC[C@H](NC(=O)[C@@H](N)CC(=O)O)C(=O)N[C@@H](CC(C)C)C(=O)NCC(=O)N[C@@H](Cc4ccccc4)C(=O)N[C@@H](CCSC)C(=O)N[C@@H](CCCNC(=N)N)C(=O)N[C@@H](CCCCN)C(=O)N2)NC(=O)[C@H](CSSC[C@@H](C(=O)N[C@@H](CCCCN)C(=O)N[C@@H](Cc2ccc(O)cc2)C(=O)N[C@H](C(=O)N[C@@H](Cc2ccccc2)C(N)=O)C(C)C)NC(=O)[C@H](Cc2c[nH]c4ccccc24)NC(=O)[C@H](CCCCN)NC(=O)[C@H](Cc2c[nH]cn2)NC(=O)[C@H]([C@@H](C)O)NC(=O)[C@H](CCCNC(=N)N)NC(=O)[C@H](CO)NC3=O)NC(=O)[C@H](CCCCN)NC(=O)[C@H](CC(=O)O)NC(=O)[C@H](CC(N)=O)NC(=O)[C@H](CC(=O)O)NC(=O)[C@@H]2CCCN2C1=O` [[Tyr22]GpTx-1(1-34)] (H-DCLGFMRKCIPDNDKCCRPNLYCSRTHKWCKYVF-NH2; disulfide 2-17, 9-23, 16-30) are 18 nM and more than 10000 nM.
The corresponding values for `CSCC[C@@H]1NC(=O)[C@H](C(C)C)NC(=O)CNC(=O)[C@H](CC(C)C)NC(=O)[C@@H](NC(=O)[C@@H](N)CC(=O)O)CSSC[C@@H]2NC(=O)[C@@H]3CSSC[C@@H](C(=O)N[C@@H](CCCCN)C(=O)N[C@@H](Cc4ccc(O)cc4)C(=O)N[C@H](C(=O)N[C@@H](Cc4ccccc4)C(N)=O)C(C)C)NC(=O)[C@H](Cc4c[nH]c5ccccc45)NC(=O)[C@H](CCCCN)NC(=O)[C@H](Cc4c[nH]cn4)NC(=O)[C@H]([C@@H](C)O)NC(=O)[C@H](CCCNC(=N)N)NC(=O)[C@H](CO)NC(=O)[C@H](CSSC[C@H](NC(=O)[C@H](CCCCN)NC(=O)[C@H](CCCNC(=N)N)NC1=O)C(=O)N[C@@H](CC(=O)O)C(=O)N1CCC[C@H]1C(=O)N[C@@H](CCC(=O)O)C(=O)N[C@@H](CC(N)=O)C(=O)N[C@@H](CC(=O)O)C(=O)N[C@@H](CCCCN)C(=O)N3)NC(=O)[C@H](C(C)C)NC(=O)[C@H](CC(C)C)NC(=O)[C@H](CC(N)=O)NC(=O)[C@@H]1CCCN1C(=O)[C@H](CCCNC(=N)N)NC2=O` [[Val5;Asp10;Glu12]GpTx-1(1-34)] (H-DCLGVMRKCDPENDKCCRPNLVCSRTHKWCKYVF-NH2; disulfide 2-17, 9-23, 16-30) are 116 nM and more than 10000 nM.
For `CSCC[C@@H]1NC(=O)[C@H](C(C)C)NC(=O)CNC(=O)[C@H](CC(C)C)NC(=O)[C@@H](NC(=O)[C@@H](N)CC(=O)O)CSSC[C@@H]2NC(=O)[C@@H]3CSSC[C@@H](C(=O)N[C@@H](CCCCN)C(=O)N[C@@H](Cc4ccc(O)cc4)C(=O)N[C@H](C(=O)N[C@@H](Cc4ccccc4)C(N)=O)C(C)C)NC(=O)[C@H](Cc4c[nH]c5ccccc45)NC(=O)[C@H](CCCCN)NC(=O)[C@H](Cc4c[nH]cn4)NC(=O)[C@H]([C@@H](C)O)NC(=O)[C@H](CCCNC(=N)N)NC(=O)[C@H](CO)NC(=O)[C@H](CSSC[C@H](NC(=O)[C@H](CCCCN)NC(=O)[C@H](CCCNC(=N)N)NC1=O)C(=O)N[C@@H](CC(=O)O)C(=O)N1CCC[C@H]1C(=O)N[C@@H](CC(=O)O)C(=O)N[C@@H](CC(N)=O)C(=O)N[C@@H](CC(=O)O)C(=O)N[C@@H](CCCCN)C(=O)N3)NC(=O)[C@H](C(C)C)NC(=O)[C@H](CC(C)C)NC(=O)[C@H](CC(N)=O)NC(=O)[C@@H]1CCCN1C(=O)[C@H](CCCNC(=N)N)NC2=O` [[Val5;Asp10]GpTx-1(1-34)] (H-DCLGVMRKCDPDNDKCCRPNLVCSRTHKWCKYVF-NH2; disulfide 2-17, 9-23, 16-30), the IC50 is 174 nM against hNav1.7 and more than 10000 nM at hNav1.5.
Consider `CC[C@H](C)[C@@H]1NC(=O)[C@@H]2CSSC[C@@H]3NC(=O)[C@H](C(C)C)NC(=O)[C@H](CC(C)C)NC(=O)[C@H](CC(N)=O)NC(=O)[C@@H]4CCCN4C(=O)[C@H](CCCNC(=N)N)NC(=O)[C@H](CSSC[C@H](NC(=O)[C@@H](N)CC(=O)O)C(=O)N[C@@H](CC(C)C)C(=O)NCC(=O)N[C@@H](C(C)C)C(=O)N[C@@H](CCSC)C(=O)N[C@@H](CCCNC(=N)N)C(=O)N[C@@H](CCCCN)C(=O)N2)NC(=O)[C@H](CSSC[C@@H](C(=O)N[C@@H](CCCCN)C(=O)N[C@@H](Cc2ccc(O)cc2)C(=O)N[C@H](C(=O)N[C@@H](Cc2ccccc2)C(N)=O)C(C)C)NC(=O)[C@H](Cc2c[nH]c4ccccc24)NC(=O)[C@H](CCCCN)NC(=O)[C@H](Cc2c[nH]cn2)NC(=O)[C@H]([C@@H](C)O)NC(=O)[C@H](CCCNC(N)=O)NC(=O)[C@H](CO)NC3=O)NC(=O)[C@H](CCCCN)NC(=O)[C@H](CC(=O)O)NC(=O)[C@H](CC(N)=O)NC(=O)[C@H](CC(=O)O)NC(=O)[C@@H]2CCCN2C1=O` [[Val5;Cit25]GpTx-1(1-34)] (H-DCLGVMRKCIPDNDKCCRPNLVCS[Cit]THKWCKYVF-NH2; disulfide 2-17, 9-23, 16-30), for which the half-inhibitory concentration (IC50) against hNav1.7 was 28 nM; on hNav1.5, more than 10000 nM.
The corresponding values for `CC[C@H](C)[C@@H]1NC(=O)[C@@H]2CSSC[C@@H]3NC(=O)[C@H](C(C)C)NC(=O)[C@H](CC(C)C)NC(=O)[C@H](CC(N)=O)NC(=O)[C@@H]4CCCN4C(=O)[C@H](CCCNC(=N)N)NC(=O)[C@H](CSSC[C@H](NC(=O)[C@@H](N)CC(=O)O)C(=O)N[C@@H](CC(C)C)C(=O)NCC(=O)N[C@@H](C(C)C)C(=O)N[C@@H](CCSC)C(=O)N[C@@H](CCCNC(=N)N)C(=O)N[C@@H](CCCCN)C(=O)N2)NC(=O)[C@H](CSSC[C@@H](C(=O)N[C@@H](CCCCN)C(=O)N[C@@H](Cc2ccc(O)cc2)C(=O)N[C@H](C(=O)N[C@@H](Cc2ccccc2)C(N)=O)C(C)C)NC(=O)[C@H](Cc2c[nH]c4ccccc24)NC(=O)[C@H](CCCCN)NC(=O)[C@H](Cc2c[nH]cn2)NC(=O)[C@H]([C@@H](C)O)NC(=O)[C@H](CCCNC(=N)N)NC(=O)[C@H](CO)NC3=O)NC(=O)[C@H](CCCCN)NC(=O)[C@H](CC(=O)O)NC(=O)[C@H](CC(N)=O)NC(=O)[C@H](CCC(=O)O)NC(=O)[C@@H]2CCCN2C1=O` [[Val5;Glu12]GpTx-1(1-34)] (H-DCLGVMRKCIPENDKCCRPNLVCSRTHKWCKYVF-NH2; disulfide 2-17, 9-23, 16-30) are 74 nM and more than 10000 nM.
In the same order, the values of `CC[C@H](C)[C@@H]1NC(=O)[C@@H]2CSSC[C@@H]3NC(=O)[C@H](C(C)C)NC(=O)[C@H](CC(C)C)NC(=O)[C@H](CC(N)=O)NC(=O)[C@@H]4CCCN4C(=O)[C@H](CCCNC(=N)N)NC(=O)[C@H](CSSC[C@H](NC(=O)[C@@H](N)CC(=O)O)C(=O)N[C@@H](CC(C)C)C(=O)NCC(=O)N[C@@H](C(C)C)C(=O)N[C@@H](CCSC)C(=O)N[C@@H](CCCNC(=N)N)C(=O)N[C@@H](CCCCN)C(=O)N2)NC(=O)[C@H](CSSC[C@@H](C(=O)N[C@@H](CCCCN)C(=O)N[C@@H](Cc2ccc(O)cc2)C(=O)N[C@H](C(=O)N[C@@H](Cc2ccccc2)C(N)=O)C(C)C)NC(=O)[C@H](Cc2c[nH]c4ccccc24)NC(=O)[C@H](CCC(=O)O)NC(=O)[C@H](Cc2c[nH]cn2)NC(=O)[C@H]([C@@H](C)O)NC(=O)[C@H](CCCNC(=N)N)NC(=O)[C@H](CO)NC3=O)NC(=O)[C@H](CCCCN)NC(=O)[C@H](CC(=O)O)NC(=O)[C@H](CC(N)=O)NC(=O)[C@H](CC(=O)O)NC(=O)[C@@H]2CCCN2C1=O` [[Val5;Glu28]GpTx-1(1-34)] (H-DCLGVMRKCIPDNDKCCRPNLVCSRTHEWCKYVF-NH2; disulfide 2-17, 9-23, 16-30) are 29 nM and more than 10000 nM.

What is called IC50 is the concentration at which inhibition is half-maximal. A low value points to inhibition by little substance.

Source of the values: US9340590B2 (priority 2011, dated 2016).
